Reference: patent US20150023887A1, “Antiperspirant Spray Devices and Compositions” (The Procter & Gamble Company, priority 2013, published 2015)

Excerpt: (§1) Solubility may be determined by measuring the amount of light transmittance (a light transmittance value) through a simple mixture of the non-volatile silicone fluid and liquid activation enhancer at the same weight/weight concentrations as in a final antiperspirant composition.
as §1, with “Solubility of a liquid activation enhancer in a non-volatile silicone” for “Solubility”, “(light” for “(a light”
The Spectronic Genesys 10 Vis utilizes a tungsten-halogen light source and has a spectral bandwidth of 5 nm, a wavelength range of 325 to 1100 nm, accuracy of ±1 nm and a repeatability of ±0.5 nm. Readouts include absorbance, transmittance and concentration. The spectrophotometer is set to 640 nm wavelength and the percent transmittance mode/readout. Polystyrene spectrometer cuvettes having a 1 cm optical light path and transmittance between ˜340 nm and ˜900 nm are used. One suitable example of a spectrometer cuvette is available from VWR International LLC under Catalog #97000-584 having a 2.5 to 4.5 ml capacity. The spectrophotometer is calibrated according to the manufacturer's instructions using a reference cuvette and composition comprised of just the non-volatile silicone fluid of interest. For example, if the test composition comprises 50 centistoke dimethicone and 15% w/w of isopropyl myristate, then the spectrometer is calibrated using a cuvette containing just 50 centistoke dimethicone. Sample cuvettes are filled sufficiently with a test composition of a non-volatile silicone fluid and liquid activation enhancer so that the light path of the spectrophotometer passes through the test composition in the cuvette. The sample cuvettes are shaken well just prior to taking a light transmittance reading.

Row | Compound | light transmittance value | solubility in 50 centistoke dimethicone
1 | CCCCCCCCCCCCCCCCCC(=O)OCCCC [butyl stearate] | about 100% | 
2 | CCCCCCCCCCCCCC(C)C [isohexadecane] | about 100% | soluble in 50 centistoke dimethicone across the 2% to 30% w/w concentration range
3 | CCCCCCCCCCCCCC(=O)OC(C)C [isopropyl myristate] | about 101% | 
4 | CCCCCCCCCCCCCCCC(=O)OC(C)C [isopropyl palmitate] | about 101% | 
5 | CCCCCCCCCCC(CO)CCCCCCCC (centres unmarked) [octyldodecanol] |  | soluble in the 50 centistoke dimethicone at some (lower) concentrations
6 | PPG-14 butyl ether |  | insoluble in 50 centistoke dimethicone across the 2% to 30% w/w concentration range
7 | mineral oil |  | soluble in 50 centistoke dimethicone at some (lower) concentrations
